Experimental findings from US10975037B2 (priority 2018, dated 2021) are described below.

The target of test [1] is human RORγt ligand binding domain (RORγt LBD) (Homo sapiens (Human), UniProt P51449). Put plainly: RORγt ThermoFluor® assay (thermal shift binding). In a few lines: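 Thermal shift with 0.065 mg/mL RORγt LBD and 60 μM 1,8-ANS in 100 mM Hepes pH 7.0, 10 mM NaCl, 2.5 mM GSH, 0.002% Tween-20.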
The target of the next test is full-length human RORγt (Homo sapiens (Human), UniProt P51449). Description: RORγt (full-length human) reporter assay, conditions A or B, HEK293T cells. The format is cell-based. Conditions: for inhibition at 0.67 µM: 0.67 μM compound concentration (footnote ****); for inhibition at 6 µM: read-out: RORγt (FL) Reporter Assay A or B, % inhibition @ 6 μM, 6 μM compound concentration. In a few lines:
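Dual-luciferase read-out was taken after an overnight (16–20 h) compound exposure. Firefly data were scaled between DMSO-only and saturating reference compound, Renilla-normalized, then plotted against concentration for IC50.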

Where [2] appears, read: read-out: ThermoFluor® Assay, Kd.
Setting [3] is: HEK-293T, 3 μM compound concentration (footnote *), read-out: RORγt (FL) Reporter Assay A or B, % inhibition.
[4] abbreviates: RORγt (FL) Reporter Assay A or B, IC50, HEK293T cells.
Setting [5] is: HEK-293T, read-out: RORγt (FL) Reporter Assay A or B, % inhibition.
Where [6] appears, read: HEK-293T, 2 μM compound concentration, read-out: RORγt (FL) Reporter Assay A or B, % inhibition.

Where a name gives a salt, the structure may show the parent alone. Read-outs that look alike come from different tables or passages of the source. Marks after values point to notes of the source that are not given here.

Chain of human RORγt ligand binding domain (RORγt LBD) (P51449 other isoform, or with tags, fused parts or gaps): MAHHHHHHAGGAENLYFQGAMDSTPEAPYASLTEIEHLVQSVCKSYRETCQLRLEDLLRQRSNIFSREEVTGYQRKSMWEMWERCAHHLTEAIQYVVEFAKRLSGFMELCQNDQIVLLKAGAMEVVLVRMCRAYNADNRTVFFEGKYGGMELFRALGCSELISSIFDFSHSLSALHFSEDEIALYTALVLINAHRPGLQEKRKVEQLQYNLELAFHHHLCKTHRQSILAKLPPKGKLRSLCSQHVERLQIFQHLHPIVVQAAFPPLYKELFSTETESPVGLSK
Chain of full-length human RORγt (P51449 other isoform, or with tags, fused parts or gaps): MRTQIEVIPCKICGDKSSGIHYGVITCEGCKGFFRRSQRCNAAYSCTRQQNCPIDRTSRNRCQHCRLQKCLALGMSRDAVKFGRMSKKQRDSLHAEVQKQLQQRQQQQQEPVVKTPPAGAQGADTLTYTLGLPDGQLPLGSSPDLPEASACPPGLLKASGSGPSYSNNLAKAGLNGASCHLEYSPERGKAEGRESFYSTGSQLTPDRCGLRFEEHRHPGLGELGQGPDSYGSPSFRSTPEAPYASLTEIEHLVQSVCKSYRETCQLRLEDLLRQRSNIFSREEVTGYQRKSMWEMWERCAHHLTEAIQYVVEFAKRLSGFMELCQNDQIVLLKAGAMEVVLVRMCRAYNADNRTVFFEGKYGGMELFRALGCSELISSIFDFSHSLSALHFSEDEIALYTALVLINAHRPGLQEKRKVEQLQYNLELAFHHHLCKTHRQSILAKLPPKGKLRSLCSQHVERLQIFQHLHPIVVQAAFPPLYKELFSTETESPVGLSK

In the case of `Cc1c(C(=O)NC[C@]2(O)CC[C@@H](S(C)(=O)=O)CC2)nn(CC(C)(C)O)c1-c1ccc(CC(C)(C)C(F)(F)F)cc1OC(F)F` [Example 146, 5-(2-(Difluoromethoxy)-4-(3,3,3-trifluoro-2,2-dimethylpropyl)phenyl)-1-(2-hydroxy-2-methylpropyl)-N-(((1s,4s)-1-hydroxy-4-(methylsulfonyl)cyclohexyl)methyl)-4-methyl-1H-pyrazole-3-carboxamide], the Kd in test [1] (setting [2]) was 15 nM. The inhibition at 3 µM on full-length human RORγt (setting [3]) stood at 106%. Further, the IC50 at full-length human RORγt (setting [4]) turned out to be 15 nM.

For the molecule `CCn1nc(C(=O)NC[C@]2(O)CC[C@@H](S(C)(=O)=O)CC2)c(Cl)c1-c1ccc(CC(C)(C)C(F)(F)F)cc1F` [Example 178, 4-Chloro-1-ethyl-5-(2-fluoro-4-(3,3,3-trifluoro-2,2-dimethylpropyl)phenyl)-N-(((1s,4s)-1-hydroxy-4-(methylsulfonyl)cyclohexyl)methyl)-1H-pyrazole-3-carboxamide], in test [1] (setting [2]), the Kd is 2.4 nM. At full-length human RORγt (setting [5]), the inhibition at 0.67 µM was 89%. The molecule also yielded an IC50 on full-length human RORγt (setting [4]) of 30 nM.

For the molecule `CCn1nc(C(=O)NC[C@]2(O)CC[C@@H](S(C)(=O)=O)CC2)c(Cl)c1-c1ccc(CC(C)(C)C(F)(F)F)cc1` [Example 167, 4-Chloro-1-ethyl-N-(((1s,4s)-1-hydroxy-4-(methylsulfonyl)cyclohexyl)methyl)-5-(4-(3,3,3-trifluoro-2,2-dimethylpropyl)phenyl)-1H-pyrazole-3-carboxamide], the Kd in test [1] (setting [2]) stood at 8.6 nM. Besides, the inhibition at 0.67 µM on full-length human RORγt (setting [5]) was found to be 83%. Further, the IC50 against full-length human RORγt (setting [4]) worked out at 24 nM.

For `CCn1nc(C(=O)NC[C@H]2CC[C@H](S(C)(=O)=O)CN2)c(Cl)c1-c1ccc(CC(C)(C)C(F)(F)F)cc1OC(F)F` (stereo in doubt) [Example 8, 4-Chloro-5-(2-(difluoromethoxy)-4-(3,3,3-trifluoro-2,2-dimethylpropyl)phenyl)-1-ethyl-N-(((2RS,5SR)-5-(methylsulfonyl)piperidin-2-yl)methyl)-1H-pyrazole-3-carboxamide Hydrobromide], the Kd in test [1] (ThermoFluor® Assay, Kd) turned out to be 0.73 nM. Also, the inhibition at 3 µM at full-length human RORγt (setting [3]) came to 92%. This molecule showed a half-maximal inhibitory concentration (IC50) on full-length human RORγt (setting [4]) of 13 nM.

Consider `CCn1nc(C(=O)NC[C@H]2CC[C@H](S(C)(=O)=O)CC2)c(Cl)c1-c1ccc(OCC(C)(F)F)cc1OC` [Example 214, 4-Chloro-5-(4-(2,2-difluoropropoxy)-2-methoxyphenyl)-1-ethyl-N-(((1r,4r)-4-(methylsulfonyl)cyclohexyl)methyl)-1H-pyrazole-3-carboxamide], for which the Kd in test [1] (setting [2]) was determined as 39 nM. At full-length human RORγt (setting [6]), the inhibition at 2 µM stood at 79%. This molecule gave an IC50 at full-length human RORγt (setting [4]) of 84 nM.

In the case of `CCn1nc(C(=O)NC[C@H]2CC[C@H](S(C)(=O)=O)CC2)c(Cl)c1-c1ccc(C2(O)CCC(C(F)(F)F)CC2)cc1OC(F)F` (single isomer, unassigned) [Example 115, 4-Chloro-5-(2-(difluoromethoxy)-4-((1r*,4r*)-1-hydroxy-4-(trifluoromethyl)cyclohexyl)phenyl)-1-ethyl-N-(((1r,4r)-4-(methylsulfonyl)cyclohexyl)methyl)-1H-pyrazole-3-carboxamide], in test [1] (ThermoFluor® Assay, Kd), the Kd was 32 nM. The inhibition at 3 µM at full-length human RORγt (setting [3]) is 89%. Besides, the IC50 against full-length human RORγt (setting [4]) is 16 nM.

Regarding `CCn1nc(C(=O)NC[C@]2(O)CC[C@@H](S(C)(=O)=O)CC2)c(C#N)c1-c1ccc(CCC(F)(F)F)cc1OC` [Example 124, 4-Cyano-1-ethyl-N-(((1s,4s)-1-hydroxy-4-(methylsulfonyl)cyclohexyl)methyl)-5-(2-methoxy-4-(3,3,3-trifluoropropyl)phenyl)-1H-pyrazole-3-carboxamide], the Kd in test [1] (setting [2]) was found to be 170 nM. In addition, the inhibition at 6 µM at full-length human RORγt (HEK-293T) came out at 83%. In addition, the IC50 on full-length human RORγt (setting [4]) is 770 nM.

Turning to `CCn1nc(C(=O)NC[C@]2(CO)CC[C@@H](S(C)(=O)=O)CC2)c(Cl)c1-c1ccc(N[C@H](C)C(F)(F)F)cc1OC` (relative stereo) [Example 93, 4-Chloro-1-ethyl-N-(((1s*,4S*)-1-(hydroxymethyl)-4-(methylsulfonyl)cyclohexyl)methyl)-5-(2-methoxy-4-(((R)-1,1,1-trifluoropropan-2-yl)amino)phenyl)-1H-pyrazole-3-carboxamide], in test [1] (ThermoFluor® Assay, Kd), the Kd was determined as 11 nM. Besides, the inhibition at 2 µM at full-length human RORγt (setting [6]) turned out to be 96%. Besides, the IC50 against full-length human RORγt (setting [4]) amounted to 30 nM.

As for `CCn1nc(C(=O)NC[C@@]2(O)CC[C@H](S(C)(=O)=O)C[C@@H]2O)c(C)c1-c1ccc(C[C@H](C)C(F)(F)F)cc1OC(F)F` (stereo in doubt) [Example 57, 5-(2-(Difluoromethoxy)-4-((S*)-3,3,3-trifluoro-2-methylpropyl)phenyl)-N-(((1S*,2S*,4S*)-1,2-dihydroxy-4-(methylsulfonyl)cyclohexyl)methyl)-1-ethyl-4-methyl-1H-pyrazole-3-carboxamide], the Kd in test [1] (ThermoFluor® Assay, Kd) worked out at 5.7 nM. Moreover, on full-length human RORγt (setting [3]), the inhibition at 3 µM is 95%. The molecule further yielded an IC50 against full-length human RORγt (setting [4]) of 35 nM.

`CCn1nc(C(=O)NC[C@H]2CC[C@H](S(C)(=O)=O)CC2)c(Cl)c1-c1ccc(CCC(F)(F)F)cc1OC(F)(F)F` [Example 189, 4-Chloro-1-ethyl-N-(((1r,4r)-4-(methylsulfonyl)cyclohexyl)methyl)-5-(2-(trifluoromethoxy)-4-(3,3,3-trifluoropropyl)phenyl)-1H-pyrazole-3-carboxamide]: in test [1] (setting [2]), the equilibrium dissociation constant (Kd) was found to be 4.8 nM. Further, the inhibition at 2 µM on full-length human RORγt (setting [5]) is 47%. In addition, the IC50 at full-length human RORγt (setting [4]) was greater than 2000 nM.

On to `COCCn1nc(C(=O)NC[C@H]2CC[C@H](S(C)(=O)=O)CC2)c(Cl)c1-c1ccc(CC(C)(C)C(F)(F)F)cc1OC(F)F` [Example 148, 4-Chloro-5-(2-(difluoromethoxy)-4-(3,3,3-trifluoro-2,2-dimethylpropyl)phenyl)-1-(2-methoxyethyl)-N-(((1r,4r)-4-(methylsulfonyl)cyclohexyl)methyl)-1H-pyrazole-3-carboxamide], for which the dissociation constant (Kd) in test [1] (setting [2]) amounted to 0.16 nM. Further, the inhibition at 0.67 µM at full-length human RORγt (setting [5]) was determined as 91%. This molecule had a concentration for half-maximal inhibition (IC50) at full-length human RORγt (setting [4]) of 2 nM.

Take `CCn1nc(C(=O)NC[C@]2(C(=O)O)CC[C@H](S(C)(=O)=O)CC2)c(Cl)c1-c1ccc(N[C@H](C)C(F)(F)F)cc1OC` (relative stereo) [Example 96, (1r*,4R*)-1-((4-Chloro-1-ethyl-5-(2-methoxy-4-(((R)-1,1,1-trifluoropropan-2-yl)amino)phenyl)-1H-pyrazole-3-carboxamido)methyl)-4-(methylsulfonyl)cyclohexane-1-carboxylic Acid]: the Kd in test [1] (ThermoFluor® Assay, Kd) came to 25000 nM. The inhibition at 6 µM on full-length human RORγt (HEK-293T) was -10%. Also, the IC50 at full-length human RORγt (setting [4]) is greater than 6000 nM.

For the molecule `CCn1nc(C(=O)NC[C@H]2CC[C@H](S(C)(=O)=O)CC2)c(Cl)c1-c1ccc(OCC2(C)CC2)cc1OC` [Example 215, 4-Chloro-1-ethyl-5-(2-methoxy-4-((1-methylcyclopropyl)methoxy)phenyl)-N-(((1r,4r)-4-(methylsulfonyl)cyclohexyl)methyl)-1H-pyrazole-3-carboxamide], the equilibrium dissociation constant (Kd) in test [1] (setting [2]) came to 6.6 nM. Moreover, the inhibition at 2 µM at full-length human RORγt (setting [6]) amounted to 80%. For the same molecule, on full-length human RORγt (setting [4]), 56 nM corresponded to half-maximal inhibition (IC50).

Regarding `C[C@H](Cc1ccc(-c2c(Cl)c(C(=O)NC[C@]3(O)CC[C@@H](S(C)(=O)=O)CC3)nn2C)c(OC(F)F)c1)C(F)(F)F` (single isomer, unassigned) [Example 152, 4-Chloro-5-(2-(difluoromethoxy)-4-((R*)-3,3,3-trifluoro-2-methylpropyl)phenyl)-N-(((1s,4S)-1-hydroxy-4-(methylsulfonyl)cyclohexyl)methyl)-1-methyl-1H-pyrazole-3-carboxamide], the Kd in test [1] (ThermoFluor® Assay, Kd) turned out to be 7.9 nM. Further, the inhibition at […] at full-length human RORγt (HEK-293T, 0.33 μM compound concentration (footnote *****), read-out: RORγt (FL) Reporter Assay A or B, % inhibition) came to 72%. At full-length human RORγt (setting [4]), this molecule came in with an IC50 of 37 nM.

For the molecule `CCn1nc(C(=O)NC[C@]2(O)CC[C@@H](S(N)(=O)=O)CC2)c(C)c1-c1ccc(C[C@H](C)C(F)(F)F)cc1OC(F)F` (single isomer, unassigned) [Example 61, 5-(2-(difluoromethoxy)-4-((S*)-3,3,3-trifluoro-2-methylpropyl)phenyl)-1-ethyl-N-(((1s,4R)-1-hydroxy-4-sulfamoylcyclohexyl)methyl)-4-methyl-1H-pyrazole-3-carboxamide], in test [1] (ThermoFluor® Assay, Kd), the Kd was 6.5 nM. Moreover, on full-length human RORγt (HEK-293T, 1 μM compound concentration (footnote ***), read-out: RORγt (FL) Reporter Assay A or B, % inhibition), the inhibition at 1 µM was 130%. In addition, half-maximal inhibition against full-length human RORγt (setting [4]) (IC50) required 68 nM.

For the molecule `CCn1nc(C(=O)NC[C@H]2CC[C@H](S(=O)(=O)NC=O)CC2)c(Cl)c1-c1ccc(CC(C)(C)C(F)(F)F)cc1OC(F)F` [Example 67, 4-Chloro-5-(2-(difluoromethoxy)-4-(3,3,3-trifluoro-2,2-dimethylpropyl)phenyl)-1-ethyl-N-(((1r,4r)-4-(N-formylsulfamoyl)cyclohexyl)methyl)-1H-pyrazole-3-carboxamide], the dissociation constant (Kd) in test [1] (setting [2]) was 0.039 nM. The “RORγt (FL) Reporter Assay A or B, % inhibition” value at full-length human RORγt (3 μM compound concentration (footnote *)) is 118* %. Also, the IC50 on full-length human RORγt (HEK293T cells, read-out: RORγt (FL) Reporter Assay A or B, IC50) is 56 nM.
